The text below walks through data of patent publication EP0863156A1, “Peptides useful as somatostatin antagonists” (American Cyanamid Company, priority 1997, dated 1998).

In test [1] the target is T1, SRIF receptors (Rattus norvegicus, UniProt P30680).
T1 construct: expressed in transfected cells; host or cells: Saccharomyces cerevisiae strain LY364
The experiment in a line: Yeast bioassay for SRIF antagonist activity (zone of growth inhibition of LY364 cells growing in response to SRIF). Particulars: 10 µL of 5 mg/mL on filter disk, S-14 10 nM; for Inhibition Zone (mm): sample type 4th iteration, read after 3 days, compare only within same experiment; for Yeast Assay (mm): Table III, diameter of zone of growth inhibition. The test is classed as cell-based. Here is the method: Agar plates containing LY364 cells that are growing in the presence of added SRIF are the basis for a sensitive SRIF antagonist assay, whereby zones of growth inhibition result from the addition of SRIF antagonists to the surface of the agar plate (see L.A. Price, et al., Molecular and Cellular Biology, 15, 6188-6195, 1995, incorporated herein by reference).
In this assay, LY364 cells are grown overnight in 2 mL of synthetic complete(SC) medium (3.4 g/L YNB without amino acids and ammonium sulfate, 10 g/L ammonium sulfate and 1.4 g/L CSM-ura-trp) with glucose (2%) and without uracil and tryptophan. These cells are washed and cultured for 4 to 8 hours in 5 mL of SC medium with lactate (3%) and without uracil and tryptophan, and finally grown overnight in 5 mL of SC medium with galactose (2%) and without uracil and tryptophan. Molten (50° C) SC agar medium with galactose (2%) and without uracil, tryptophan and histidine is adjusted to pH 6.8 with KOH, mixed with 2 x 10^4 cells/mL and SRIF (S-14, 10 nM) and poured into square (20 x 20 cm) petri dishes. Sterile filter disks are placed on the surface of the agar, and saturated with 10 µL of water or DMSO containing 5 mg/mL test peptides. After three days, the plates display a uniform cloudy background of […] cells growing in response to the added SRIF. […] This zone is quantified by measuring its diameter (mm), which varies according to the potency of the SRIF antagonist. Those peptides or mixtures of peptides displaying the largest zones of inhibition are further characterized.
Values are compared among samples in the same experiment, as the degree of yeast growth varies somewhat from assay to assay. For the first five sample types, in which progressively less complex mixtures of peptides are found, this assay is the primary determining factor in choosing which samples form the basis of subsequent syntheses.
Plates are read after 3 days. Samples shown in Table I in bold type are chosen for further synthesis. In Table I, all amino acids are D-amino acids and dashes represent undefined amino acid residues.

Test [2] deals with SSTR2 (Rattus norvegicus, UniProt P30680). The experiment in a line: cAMP accumulation in forskolin-stimulated GH4C1/SSTR2 cells (SPA radioimmunoassay). The test is classed as cell-based. Also noted: expressed in transfected cells; host or cells: GH4C1 rat pituitary tumor cells. The settings on record: for Emax: GH4-C1, read-out: cAMP Assay Intrinsic activity; for Emax / cAMP Assay Intrinsic activity: percent reversal of SSTR2 activation by SRIF or MK678, 0% = forskolin plus agonist, 100% = forskolin alone. On the technique in general: Cyclic AMP is a second messenger, typically raised through Gs and lowered through Gi signalling.
Protocol: This is the basis of a common assay for SRIF agonists and antagonists, whereby SRIF agonists reduce artificially stimulated cAMP levels, and SRIF antagonists reverse the effect of SRIF. […] This increases the response to SRIF and provides a greater dynamic range for the measurement of SRIF antagonist activity.
Stimulation of cells. GH4C1/SSTR2 cells, grown in DMEM with 10% bovine serum, are released from a tissue culture dish by incubation for several minutes at 37° C with PBS containing 0.5 mM EDTA. Cells are washed in induction buffer (PBS containing 100 µM IBMX (an inhibitor of cAMP breakdown) and 2 mM CaCl2) at room temperature, and resuspended at 2 x 10^6/mL in induction buffer. Into each well of a 96-well tray are added 50 µL of a 2 X concentration of stimulants in induction buffer. […] To initiate stimulation of the cells, 50 µL (100,000) cells are added to each well, mixed by shaking 10 seconds on a plate shaker and placed at 37° C for 15 minutes. Stimulation is arrested and cells are lysed by adding 15 µL 0.33 N HCI to each well and incubating the plate for 30 minutes at 37° C. Samples are neutralized by addition of 15 µL 0.25 N NaOH/50 mM Hepes pH 7.4. Baseline cAMP levels are determined in samples with no added forskolin or SRIF, and each treatment is performed in triplicate.
cAMP assay. To measure accumulated cAMP in the samples, a radioimmunoassay is employed. The scintillation proximity assay (SPA, Amersham, Arlington Heights, IL) allows the rapid measurement of ^125I cAMP bound to a specific antibody without separating bound radioligand from free radioligand. Each of the following reagents (15 µL) are added per well in a 96-well tray: supernatants from the cell stimulation; ^125I cAMP; SPA beads conjugated to monkey anti-rabbit IgG antibodies; and rabbit anti-cAMP antibodies. For the standard curve, known amounts of cAMP (0.2 - 12.8 pmol) are added in place of cell supernatants. The 96-well tray is sealed, shaken at room temperature overnight and measured for bound radioligand in a MicroBeta liquid scintillation counter (Wallac, Gaithersburg. MD).
The intrinsic activity of an SRIF antagonist is the percent reversal of the SSTR2 activation by SRIF or MK678, wherein 0% is defined by cAMP levels in samples treated with forskolin plus SRIF or MK678 and 100% is the cAMP level measured after treatment with forskolin alone. Therefore, increased intrinsic activity of a test compound indicates increased antagonist activity of said test compound.
An inverse agonist is a compound that is not only a pure antagonist (i.e. lacking agonist activity), but also blocks the constitutive activity of an unoccupied receptor. One indication of inverse agonist activity is the ability of a SRIF antagonist to increase cAMP levels in the absence of added SRIF.

For test [3], the system named is serum growth hormone (GH) levels. Put plainly: In vivo serum growth hormone levels in anaesthetized rats (radioimmunoassay). Also noted: species or system Male Sprague-Dawley rats. Particulars: GRF 1 µg alone at 30 min. The method, then: Evaluation in anaesthetized rats. Male Sprague-Dawley rats are anaesthetized with Sagatal and fitted so as to allow efficient intravenous treatment with control and test compounds as well as frequent blood sampling. Blood samples are tested for growth hormone (GH) levels by radioimmunoassay. Thirty minutes after the initiation of blood sampling, rats are given 5 µg, 25 µg or 50 µg of peptide 1.
Peptide 1 is tested in combination with growth hormone releasing factor (GRF), to investigate whether said peptide may be mimicking the action of GRF. Anaesthetized rats are given GRF (1 µg) alone and in combination with peptide 1 (50 µg). […]

The mark [4] stands for this setting: dose response of SRIF agonist upon cAMP levels in forskolin stimulated GH4C1/SSTR2 cells, agonist alone.

Where two headings read alike, the source gives them in different places. Square brackets hold non-standard residues; d marks the D form. Peptide text beside a SMILES is read from it.

T1 sequence (P30680 whole entry): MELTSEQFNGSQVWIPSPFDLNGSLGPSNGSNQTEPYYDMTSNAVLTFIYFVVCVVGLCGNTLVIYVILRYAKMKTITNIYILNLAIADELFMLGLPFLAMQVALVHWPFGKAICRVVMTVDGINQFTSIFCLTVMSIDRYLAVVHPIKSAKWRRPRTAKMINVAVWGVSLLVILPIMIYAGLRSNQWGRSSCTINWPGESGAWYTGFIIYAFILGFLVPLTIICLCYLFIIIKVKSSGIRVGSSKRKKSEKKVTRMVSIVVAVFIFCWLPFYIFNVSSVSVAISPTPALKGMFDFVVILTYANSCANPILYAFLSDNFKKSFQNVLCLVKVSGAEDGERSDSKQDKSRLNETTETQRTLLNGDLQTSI
SSTR2, sequence (P30680 whole entry): as above

`CC[C@@H](C)[C@@H](NC(=O)[C@@H](Cc1ccccc1)NC(=O)[C@@H](Cc1c[nH]cn1)NC(C)=O)C(=O)N[C@H](CCCNC(=N)N)C(=O)N[C@H](Cc1c[nH]c2ccccc12)C(=O)NCC(N)=O` [His Phe Ile Arg Trp Gly] (Ac-[dH][dF][dI][dR][dW]G-NH2): the “Inhibition Zone (mm)” value in test [1] is 13 mm.

The term EC50 denotes the concentration at which the effect is half-maximal. High values mean lower potency in that assay, low ones higher potency in that assay. Take `CC(C)[C@@H]1NC(=O)[C@H](CCCCN)NC(=O)[C@@H](Cc2c[nH]c3ccccc23)NC(=O)[C@H](Cc2ccc(O)cc2)NC(=O)[C@H](C)N(C)C(=O)[C@H](Cc2ccccc2)NC1=O` [MK678, reference compound]: the cAMP in test [2] (Forskolin 1.25 µM + MK 678 10 nM, no Peptide 1 (forskolin alone 3.04; baseline 0.36)) is 0.91 pM per 4 x 10^4 cells. In addition, in test [2] (setting [4]), the EC50 came out at 0.143 nM, the Maximum amounted to 6.431 and the Minimum was determined as 2.673.

For `CC[C@@H](C)[C@@H](NC(=O)[C@@H](Cc1ccccc1)NC(=O)[C@@H](Cc1c[nH]cn1)NC(C)=O)C(=O)N[C@H](CCCNC(=N)N)C(=O)NCC(=O)N[C@H](Cc1ccccc1)C(N)=O` [Peptide 26, h-f-i-r-g-f] (Ac-[dH][dF][dI][dR]G[dF]-NH2), the Emax in test [2] (test peptide 2 µM) was found to be 4.51%.

As to `CC[C@@H](C)[C@@H](NC(=O)[C@@H](Cc1c[nH]c2ccccc12)NC(=O)[C@@H](Cc1c[nH]cn1)NC(C)=O)C(=O)N[C@H](CCCNC(=N)N)C(=O)N[C@H](Cc1ccccc1)C(=O)N[C@H](Cc1ccccc1)C(N)=O` [Peptide 29, h-w-i-r-f-f] (Ac-[dH][dW][dI][dR][dF][dF]-NH2; N-terminus and C-terminus assumed), in test [2] (test peptide 100 µM), the Emax was 21.3%.

With `CC[C@@H](C)[C@@H](NC(=O)[C@@H](CCCNC(=N)N)NC(=O)[C@@H](Cc1c[nH]c2ccccc12)NC(=O)[C@@H](Cc1ccccc1)NC(=O)[C@@H](Cc1c[nH]cn1)NC(C)=O)C(=O)N[C@H](Cc1ccccc1)C(N)=O` [Peptide 30, h-f-w-r-i-f] (Ac-[dH][dF][dW][dR][dI][dF]-NH2; N-terminus and C-terminus assumed), the Emax in test [2] (test peptide 100 µM) was found to be 12.9%.

As to `CC[C@@H](C)[C@@H](NC(=O)[C@@H](CCCNC(=N)N)NC(=O)[C@@H](Cc1ccccc1)NC(=O)[C@@H](Cc1c[nH]cn1)NC(C)=O)C(=O)N[C@H](Cc1c[nH]c2ccccc12)C(=O)N[C@H](Cc1ccccc1)C(N)=O` [Peptide 31, h-f-r-i-w-f] (Ac-[dH][dF][dR][dI][dW][dF]-NH2; N-terminus and C-terminus assumed), in test [2] (test peptide 100 µM), the Emax turned out to be 13%.

For `CC[C@@H](C)[C@@H](NC(C)=O)C(=O)N[C@H](CCCNC(=N)N)C(=O)N[C@H](Cc1c[nH]c2ccccc12)C(=O)N[C@H](Cc1ccccc1)C(=O)N[C@H](Cc1c[nH]cn1)C(=O)N[C@H](Cc1ccccc1)C(N)=O` [Peptide 33, i-r-w-f-h-f] (Ac-[dI][dR][dW][dF][dH][dF]-NH2; N-terminus and C-terminus assumed), the Emax in test [2] (test peptide 100 µM) amounted to 11.5%.

`CC[C@@H](C)[C@H]1NC(=O)[C@@H](Cc2ccccc2)NC(=O)[C@@H](Cc2c[nH]cn2)NC(=O)[C@@H](Cc2ccccc2)NC(=O)[C@@H](Cc2c[nH]c3ccccc23)NC(=O)[C@@H](CCCNC(=N)N)NC1=O` [Peptide 35, h-f-i-r-w-f] (cyclo([dH][dF][dI][dR][dW][dF])): in test [2] (test peptide 100 µM), the Emax came to 122%.

`CC[C@@H](C)[C@@H](NC(=O)[C@@H](Cc1ccccc1)NC(=O)[C@@H](Cc1c[nH]cn1)NC(C)=O)C(=O)N[C@H](CCCNC(=N)N)C(=O)N[C@H](Cc1c[nH]c2ccccc12)C(=O)N[C@H](CC(C)C)C(N)=O` [Seq Id No. 18] (Ac-[dH][dF][dI][dR][dW][dL]-NH2): in test [1], the “Inhibition Zone (mm)” value was 15 mm.

For `CC[C@@H](C)[C@@H](NC(=O)[C@@H](Cc1ccccc1)NC(=O)[C@@H](Cc1c[nH]cn1)NC(C)=O)C(=O)N[C@H](CCCNC(=N)N)C(=O)N[C@H](Cc1c[nH]c2ccccc12)C(=O)N[C@@H](C(N)=O)[C@H](C)O` [Seq Id No. 19] (Ac-[dH][dF][dI][dR][dW][dT]-NH2), the “Inhibition Zone (mm)” value in test [1] is given as 14 mm.

Regarding `CC[C@@H](C)[C@@H](NC(=O)[C@@H](Cc1ccccc1)NC(=O)[C@@H](Cc1c[nH]cn1)NC(C)=O)C(=O)N[C@H](CCCNC(=N)N)C(=O)N[C@H](Cc1c[nH]c2ccccc12)C(=O)N[C@H](Cc1ccc(O)cc1)C(N)=O` [Seq Id No. 20] (Ac-[dH][dF][dI][dR][dW][dY]-NH2), the “Inhibition Zone (mm)” value in test [1] stood at 16 mm.

Consider `CC[C@@H](C)[C@@H](NC(=O)[C@@H](Cc1c[nH]c2ccccc12)NC(=O)[C@@H](CCCNC(=N)N)NC(=O)[C@H](NC(=O)[C@@H](Cc1ccccc1)NC(=O)[C@@H](Cc1c[nH]cn1)NC(C)=O)[C@H](C)CC)C(N)=O` [Seq Id No. 21] (Ac-[dH][dF][dI][dR][dW][dI]-NH2), for which, in test [1], the “Inhibition Zone (mm)” value is on record as 16 mm.

In the case of `CC[C@@H](C)[C@@H](NC(=O)[C@@H](Cc1ccccc1)NC(=O)[C@@H](Cc1c[nH]cn1)NC(C)=O)C(=O)N[C@H](CCCNC(=N)N)C(=O)N[C@H](Cc1c[nH]c2ccccc12)C(=O)N[C@H](C)C(N)=O` [Seq Id No. 22] (Ac-[dH][dF][dI][dR][dW][dA]-NH2), the “Inhibition Zone (mm)” value in test [1] was found to be 15 mm.

On to `CC[C@@H](C)[C@@H](NC(=O)[C@@H](Cc1ccccc1)NC(=O)[C@@H](Cc1c[nH]cn1)NC(C)=O)C(=O)N[C@H](CCCNC(=N)N)C(=O)N[C@H](Cc1c[nH]c2ccccc12)C(=O)N[C@H](CC(N)=O)C(N)=O` [Seq Id No. 23] (Ac-[dH][dF][dI][dR][dW][dN]-NH2), for which the “Inhibition Zone (mm)” value in test [1] was 15 mm.

Turning to `CC[C@@H](C)[C@@H](NC(=O)[C@@H](Cc1ccccc1)NC(=O)[C@@H](Cc1c[nH]cn1)NC(C)=O)C(=O)N[C@H](CCCNC(=N)N)C(=O)N[C@H](Cc1c[nH]c2ccccc12)C(=O)N[C@H](CCSC)C(N)=O` [Seq Id No. 24] (Ac-[dH][dF][dI][dR][dW][dM]-NH2), the “Inhibition Zone (mm)” value in test [1] is recorded as 18 mm.

For `CC[C@@H](C)[C@@H](NC(=O)[C@@H](Cc1ccccc1)NC(=O)[C@@H](Cc1c[nH]cn1)NC(C)=O)C(=O)N[C@H](CCCNC(=N)N)C(=O)N[C@H](Cc1c[nH]c2ccccc12)C(=O)N[C@H](Cc1c[nH]c2ccccc12)C(N)=O` [Seq Id No. 25] (Ac-[dH][dF][dI][dR][dW][dW]-NH2), in test [1], the “Inhibition Zone (mm)” value is 16 mm.

With `CC[C@@H](C)[C@@H](NC(=O)[C@@H](Cc1ccccc1)NC(=O)[C@@H](Cc1c[nH]cn1)NC(C)=O)C(=O)N[C@H](CCCNC(=N)N)C(=O)N[C@H](Cc1c[nH]c2ccccc12)C(=O)N[C@H](CCC(N)=O)C(N)=O` [Seq Id No. 26] (Ac-[dH][dF][dI][dR][dW][dQ]-NH2), the “Inhibition Zone (mm)” value in test [1] is 16 mm.

Consider “GRF: growth hormone releasing factor (GRF) [reference compound]”, for which the “SGH” value in test [3] (time 0 min (before dosing)) was 11.2 ng/mL; in test [3] (time 15 min (before dosing)), 11.3 ng/mL; in test [3] (time 30 min (time of dose)), 8.4 ng/mL; in test [3] (time 35 min) it was 67.1 ng/mL; in test [3] (time 40 min), 103.5 ng/mL; in test [3] (time 45 min), 53.1 ng/mL.

Regarding H-f-i-r-w-f [Peptide 13], the “cAMP Assay Intrinsic activity” value in test [2] (test peptide 2 µM) was found to be 26.2%. The “Yeast Assay (mm)” value in test [1] is given as 15 mm.

With a-f-i-r-w-f [Peptide 2], the “cAMP Assay Intrinsic activity” value in test [2] (test peptide 2 µM) is 13.0%. Also, in test [1], the “Yeast Assay (mm)” value is given as “none”.

Turning to f-h-i-r-w-f [Peptide 24], the “cAMP Assay Intrinsic activity” value in test [2] (test peptide 2 µM) was found to be 65.2%. The “Yeast Assay (mm)” value in test [1] is listed as “none”.

On to f-i-r-w-f [Peptide 7], for which, in test [2] (test peptide 2 µM), the “cAMP Assay Intrinsic activity” value is reported as -7.2%. In addition, the “Yeast Assay (mm)” value in test [1] was “none”.

f-r-i-r-w-f [Peptide 25]: in test [2] (test peptide 2 µM), the “cAMP Assay Intrinsic activity” value was found to be 10.8%. The “Yeast Assay (mm)” value in test [1] was “none”.
